Laboratory results: patent publication US7691382B2, “Antiviral polypeptides comprising tandem repeats of APOE 141-149 and variants thereof” (priority 2003, dated 2010)
Peptide text beside a SMILES is read from it.

Tested on: HSV1
Format: cell-based, Human herpes simplex virus type 1
Details: for efficacy for reducing HSV1 infectivity (in words): Examples 2 and 3
Experimental: African Green Monkey Kidney (Vero) cells were maintained in Eagle's minimum essential medium with Earle's salt (EMEM) and supplemented with 10% foetal calf serum (heat-inactivated), 4 mM L-glutamine, and 1% (v/v) nonessential amino acids, plus penicillin and streptomycin (100 IU/mg and […], respectively) (maintenance medium referred to as 10% EMEM). The cells were incubated at 37° C. in a humidified atmosphere of air with 5% CO2.
On harvesting, monolayers were washed in phosphate-buffered saline (PBS), and dislodged by incubating with trypsin in PBS for 30 min, before inactivating trypsin by addition of an equal volume of 10% EMEM and centrifuging at 500 g (5 min, 4° C.). Cell pellets were resuspended in 10% EMEM, prior to cell counting and seeding of 24-well plates. For antiviral assays, medium containing only 0.5% FCS was used (referred to as 0.5% EMEM).
Three separate passages of HSV1 virus were prepared by infecting Vero cells, and preparing semi-pure suspensions of virus from tissue culture supernatant and cell lysates, before freezing aliquots of virus at −85° C. Viral infectivity was assessed by carrying out plaque assays on serial dilutions of thawed aliquots (expressed in pfu/ml).
Peptides were obtained in lyophilised form from a commercial supplier (AltaBioscience, University of Birmingham or Advanced Biomedical), and were produced at 5 micromole scale. N-terminals were protected by addition of an acetyl group, and the C-terminals were protected by addition of an amide group.
Small quantities of peptide were weighed in sterile Eppendorf tubes, before addition of sufficient 0.5% EMEM to produce a 1.5 mM stock solution, which was frozen at −20° C. in aliquots.
Vero cells were seeded at 125,000 cells per well in 10% EMEM, and were incubated overnight resulting in confluent monolayers. […] Virus stocks (p3) were thawed, and diluted in 0.5% EMEM such that there were around 100 pfu in 100 μl. Each 24-well plate was inoculated separately. Firstly 100 μl of virus stock was added to the peptide or control medium arranged on a 96-well plate. This was incubated at 37° C. for ten minutes before inoculation. Medium was removed from four wells of a 24-well plate containing confluent Vero, and the 200 μl inoculum added to the appropriate well. Once all wells were treated, the 24-well plate was incubated for a further 60-80 minutes. Finally the peptide-containing inoculum was removed, and 1 ml of 1% EMEM containing 1% carboxymethylcellulose was added to each well. Plates were incubated for a further 22 hours or in some experiments 40 hours, before removal of overlay, and addition of 10% formaldehyde in PBS. After a further one hour incubation, fixative was removed, monolayers washed several times with tap water, and stained with carbol fuchsin solubilised in water. After 30 minutes stain was removed, and plates washed several times with tap water, before being air dried. Plaques were counted using an Olympus IX70 Inverting Microscope, and antiviral effect expressed as a percentage of the control value for each peptide concentration. The IC50 was calculated from plots of inhibitory effect against peptide concentration.

Row | Molecule | IC50 | efficacy for reducing HSV1 infectivity (in words) | Apparent IC50 (HSV1, Vero cells, Table 4 (Example 2))
1 | CC(=O)N[C@@H](Cc1c[nH]c2ccccc12)C(=O)N[C@@H](CCCNC(=N)N)C(=O)N[C@@H](CCCCN)C(=O)N[C@@H](Cc1c[nH]c2ccccc12)C(=O)N[C@@H](CCCNC(=N)N)C(=O)N[C@@H](CCCCN)C(=O)N[C@@H](CCCNC(=N)N)C(=O)N[C@@H](Cc1c[nH]c2ccccc12)C(=O)N[C@@H](Cc1ccccc1)C(=O)N[C@@H](Cc1ccccc1)C(=O)N[C@@H](CCCNC(=N)N)C(=O)N[C@@H](CCCCN)C(=O)N[C@@H](Cc1c[nH]c2ccccc12)C(=O)N[C@@H](CCCNC(=N)N)C(=O)N[C@@H](CCCCN)C(=O)N[C@@H](CCCNC(=N)N)C(=O)N[C@@H](Cc1ccccc1)C(=O)N[C@@H](Cc1ccccc1)C(N)=O [MU 61] (Ac-WRKWRKRWFFRKWRKRFF-NH2) | 4.75 µM |  | 
2 | CC(=O)N[C@@H](Cc1c[nH]c2ccccc12)C(=O)N[C@@H](CCCNC(=N)N)C(=O)N[C@@H](CCCCN)C(=O)N[C@@H](Cc1c[nH]c2ccccc12)C(=O)N[C@@H](CCCNC(=N)N)C(=O)N[C@@H](CCCCN)C(=O)N[C@@H](CCCNC(=N)N)C(=O)N[C@@H](Cc1c[nH]c2ccccc12)C(=O)N[C@@H](Cc1c[nH]c2ccccc12)C(=O)N[C@@H](CCCNC(=N)N)C(=O)N[C@@H](CCCCN)C(=O)N[C@@H](Cc1c[nH]c2ccccc12)C(=O)N[C@@H](CCCNC(=N)N)C(=O)N[C@@H](CCCCN)C(=O)N[C@@H](CCCNC(=N)N)C(=O)N[C@@H](Cc1c[nH]c2ccccc12)C(=O)N[C@@H](Cc1c[nH]c2ccccc12)C(N)=O [MU 58] (Ac-WRKWRKRWWRKWRKRWW-NH2) | 4.25 µM |  | 
3 | CC(=O)N[C@@H](CC(C)C)C(=O)N[C@@H](CCCNC(=N)N)C(=O)N[C@@H](CCCCN)C(=O)N[C@@H](CC(C)C)C(=O)N[C@@H](CCCNC(=N)N)C(=O)N[C@@H](CCCCN)C(=O)N[C@@H](CCCNC(=N)N)C(=O)N[C@@H](CC(C)C)C(=O)N[C@@H](CCCNC(=N)N)C(=O)N[C@@H](CCCCN)C(=O)N[C@@H](CC(C)C)C(=O)N[C@@H](CCCNC(=N)N)C(=O)N[C@@H](CCCCN)C(=O)N[C@@H](CCCNC(=N)N)C(N)=O [GIN 8] (Ac-LRKLRKRLRKLRKR-NH2) | 13 µM | had efficacy | 
4 | CSCC[C@H](NC(=O)[C@H](CCCNC(=N)N)NC(=O)[C@H](C)NC(=O)[C@H](CCCNC(=N)N)NC(=O)[C@H](CC(C)C)NC(=O)[C@H](CCCNC(=N)N)NC(=O)[C@H](CCC(=O)O)NC(=O)CNC(=O)[C@H](CCC(=O)O)NC(=O)[C@H](CCSC)NC(=O)[C@H](CCCNC(=N)N)NC(=O)[C@H](C)NC(=O)[C@H](CCCNC(=N)N)NC(=O)[C@H](CC(C)C)NC(=O)[C@H](CCCNC(=N)N)NC(=O)[C@H](CCC(=O)O)NC(=O)CNC(C)=O)C(=O)N[C@@H](CCC(=O)O)C(N)=O [GIN 14] (Ac-GERLRARMEGERLRARME-NH2) | > 40 µM | no, or poor, efficacy | 
5 | CC(=O)N[C@@H](CCCNC(=N)N)C(=O)N[C@@H](CCCNC(=N)N)C(=O)N[C@@H](CCCCN)C(=O)N[C@@H](CCCNC(=N)N)C(=O)N[C@@H](CCCNC(=N)N)C(=O)N[C@@H](CCCCN)C(=O)N[C@@H](CCCNC(=N)N)C(=O)N[C@@H](CCCNC(=N)N)C(=O)N[C@@H](CCCNC(=N)N)C(=O)N[C@@H](CCCNC(=N)N)C(=O)N[C@@H](CCCNC(=N)N)C(=O)N[C@@H](CCCCN)C(=O)N[C@@H](CCCNC(=N)N)C(=O)N[C@@H](CCCNC(=N)N)C(=O)N[C@@H](CCCCN)C(=O)N[C@@H](CCCNC(=N)N)C(=O)N[C@@H](CCCNC(=N)N)C(=O)N[C@@H](CCCNC(=N)N)C(N)=O [MU 16] (Ac-RRKRRKRRRRRKRRKRRR-NH2) | 7.5 µM |  | 
6 | CC(=O)N[C@@H](CC(C)C)C(=O)N[C@@H](CCCNC(=N)N)C(=O)N[C@@H](CCCCN)C(=O)N[C@@H](CC(C)C)C(=O)N[C@@H](CCCNC(=N)N)C(=O)N[C@@H](CCCCN)C(=O)N[C@@H](CCCNC(=N)N)C(=O)N[C@@H](CC(C)C)C(=O)N[C@@H](CC(C)C)C(=O)N[C@@H](CC(C)C)C(=O)N[C@@H](CCCNC(=N)N)C(=O)N[C@@H](CCCCN)C(N)=O [GIN 5] (Ac-LRKLRKRLLLRK-NH2) | > 40 µM | no, or poor, efficacy | 
7 | CC(=O)N[C@@H](CC(N)=O)C(=O)N[C@@H](CCCNC(=N)N)C(=O)N[C@@H](CCCCN)C(=O)N[C@@H](CC(N)=O)C(=O)N[C@@H](CCCNC(=N)N)C(=O)N[C@@H](CCCCN)C(=O)N[C@@H](CCCNC(=N)N)C(=O)N[C@@H](CC(N)=O)C(=O)N[C@@H](CC(N)=O)C(=O)N[C@@H](CC(N)=O)C(=O)N[C@@H](CCCNC(=N)N)C(=O)N[C@@H](CCCCN)C(=O)N[C@@H](CC(N)=O)C(=O)N[C@@H](CCCNC(=N)N)C(=O)N[C@@H](CCCCN)C(=O)N[C@@H](CCCNC(=N)N)C(=O)N[C@@H](CC(N)=O)C(=O)N[C@@H](CC(N)=O)C(N)=O [MU 11] (Ac-NRKNRKRNNNRKNRKRNN-NH2) | 27.5 µM |  | 
8 | CC(=O)N[C@@H](CCC(=O)O)C(=O)N[C@@H](CCCNC(=N)N)C(=O)N[C@@H](CCCCN)C(=O)N[C@@H](CCC(=O)O)C(=O)N[C@@H](CCCNC(=N)N)C(=O)N[C@@H](CCCCN)C(=O)N[C@@H](CCCNC(=N)N)C(=O)N[C@@H](CCC(=O)O)C(=O)N[C@@H](CCC(=O)O)C(=O)N[C@@H](CCC(=O)O)C(=O)N[C@@H](CCCNC(=N)N)C(=O)N[C@@H](CCCCN)C(=O)N[C@@H](CCC(=O)O)C(=O)N[C@@H](CCCNC(=N)N)C(=O)N[C@@H](CCCCN)C(=O)N[C@@H](CCCNC(=N)N)C(=O)N[C@@H](CCC(=O)O)C(=O)N[C@@H](CCC(=O)O)C(N)=O [GIN 6] (Ac-ERKERKREEERKERKREE-NH2) | > 40 µM | no, or poor, efficacy | 
9 | CSCC[C@H](NC(=O)[C@H](CCC(=O)O)NC(=O)[C@H](CCC(=O)O)NC(=O)[C@H](CCSC)NC(=O)[C@H](CCCNC(=N)N)NC(=O)[C@H](C)NC(=O)[C@H](CCCNC(=N)N)NC(=O)[C@H](CC(C)C)NC(=O)[C@H](CCCNC(=N)N)NC(=O)[C@H](CCSC)NC(=O)[C@H](CCC(=O)O)NC(=O)[C@H](CCC(=O)O)NC(=O)[C@H](CCSC)NC(=O)[C@H](CCCNC(=N)N)NC(=O)[C@H](C)NC(=O)[C@H](CCCNC(=N)N)NC(=O)[C@H](CC(C)C)NC(=O)[C@H](CCCNC(=N)N)NC(C)=O)C(N)=O [GIN 15] (Ac-RLRARMEEMRLRARMEEM-NH2) | > 40 µM | no, or poor, efficacy | 
10 | CC(=O)N[C@@H](CC(C)C)C(=O)N[C@@H](CCCNC(=N)N)C(=O)N[C@@H](CCCCN)C(=O)N[C@@H](CC(C)C)C(=O)N[C@@H](CCCNC(=N)N)C(=O)N[C@@H](CCCCN)C(=O)N[C@@H](CCCNC(=N)N)C(=O)N[C@@H](CC(C)C)C(=O)N[C@@H](CC(C)C)C(=O)N[C@@H](CC(C)C)C(=O)N[C@@H](CCCNC(=N)N)C(=O)N[C@@H](CCCCN)C(=O)N[C@@H](CC(C)C)C(=O)N[C@@H](CCCNC(=N)N)C(=O)N[C@@H](CCCCN)C(N)=O [GIN 4] (Ac-LRKLRKRLLLRKLRK-NH2) | 29.5 µM | no, or poor, efficacy | 
11 | RLLLRKLRKRLL [GIN 3] |  | no, or poor, efficacy | No
